Measurements: PubChem BioAssay (NCI)
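Step 1: Grow cells in 96-well plates. Step 2: Expose to compound for 48 hours at 5 concentrations. Step 3: Interpolate endpoints linearly; if unreached, use highest concentration. GI50 is the concentration that inhibits growth by half. The concentration for full growth arrest is given as TGI.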

Experiments:
Assay in all cases: NCI-60 cell line screen, 48 h
786-0 renal = system: 786-0 renal
A498 renal = system: A498 renal
A549 NSCLC = system: A549 NSCLC
ACHN renal = system: ACHN renal
BT-549 breast = system: BT-549 breast
CAKI-1 renal = system: CAKI-1 renal
CCRF-CEM leukemia = system: CCRF-CEM leukemia
COLO 205 colon = system: COLO 205 colon
DU-145 prostate = system: DU-145 prostate
EKVX NSCLC = system: EKVX NSCLC
HCC-2998 colon = system: HCC-2998 colon
HCT-116 colon = system: HCT-116 colon
HCT-15 colon = system: HCT-15 colon
HL-60(TB) leukemia = system: HL-60(TB) leukemia
HOP-62 NSCLC = system: HOP-62 NSCLC
HOP-92 NSCLC = system: HOP-92 NSCLC
HS 578T breast = system: HS 578T breast
HT29 colon = system: HT29 colon
K-562 leukemia = system: K-562 leukemia
KM12 colon = system: KM12 colon
LOX IMVI melanoma = system: LOX IMVI melanoma
M14 melanoma = system: M14 melanoma
MALME-3M melanoma = system: MALME-3M melanoma
MCF7 breast = system: MCF7 breast
MDA-MB-435 = system: MDA-MB-435
MOLT-4 leukemia = system: MOLT-4 leukemia
NCI-H23 lung = system: NCI-H23 lung
NCI-H460 lung = system: NCI-H460 lung
NCI-H522 lung = system: NCI-H522 lung
NCI/ADR-RES ovarian = system: NCI/ADR-RES ovarian
OVCAR-3 ovarian = system: OVCAR-3 ovarian
OVCAR-4 ovarian = system: OVCAR-4 ovarian
OVCAR-5 ovarian = system: OVCAR-5 ovarian
OVCAR-8 ovarian = system: OVCAR-8 ovarian
PC-3 prostate = system: PC-3 prostate
RXF 393 renal = system: RXF 393 renal
SF-268 CNS = system: SF-268 CNS
SF-295 CNS = system: SF-295 CNS
SF-539 CNS = system: SF-539 CNS
SK-MEL-2 melanoma = system: SK-MEL-2 melanoma
SK-MEL-28 melanoma = system: SK-MEL-28 melanoma
SK-MEL-5 melanoma = system: SK-MEL-5 melanoma
SK-OV-3 ovarian = system: SK-OV-3 ovarian
SN12C renal = system: SN12C renal
SNB-19 CNS = system: SNB-19 CNS
SNB-75 CNS = system: SNB-75 CNS
SW-620 colon = system: SW-620 colon
T-47D breast = system: T-47D breast
TK-10 renal = system: TK-10 renal
U251 CNS = system: U251 CNS
UACC-257 melanoma = system: UACC-257 melanoma
UO-31 renal = system: UO-31 renal
IGROV1 ovarian = system: IGROV1 ovarian
MDA-MB-231 breast = system: MDA-MB-231 breast
NCI-H226 lung = system: NCI-H226 lung
UACC-62 melanoma = system: UACC-62 melanoma
RPMI-8226 leukemia = system: RPMI-8226 leukemia

O=C1Nc2cccc(Cl)c2/C1=C\c1cccnc1
TGI (786-0 renal): 20.9 µM
TGI (A498 renal): 37.1 µM
TGI (A549 NSCLC): 33.6 µM
TGI (ACHN renal): > 100 µM
TGI (BT-549 breast): 24.4 µM
TGI (CAKI-1 renal): 24.2 µM
TGI (CCRF-CEM leukemia): > 100 µM
TGI (COLO 205 colon): 15.9 µM
TGI (DU-145 prostate): 35.9 µM
TGI (EKVX NSCLC): 93.1 µM
TGI (HCC-2998 colon): 7.86 µM
TGI (HCT-116 colon): 11.3 µM
TGI (HCT-15 colon): > 100 µM
TGI (HL-60(TB) leukemia): > 100 µM
TGI (HOP-62 NSCLC): 19.1 µM
TGI (HOP-92 NSCLC): 68 µM
TGI (HS 578T breast): 91.9 µM
TGI (HT29 colon): > 100 µM
TGI (K-562 leukemia): 36.5 µM
TGI (KM12 colon): 25.9 µM
TGI (LOX IMVI melanoma): > 100 µM
TGI (M14 melanoma): 19.6 µM
TGI (MALME-3M melanoma): 24 µM
TGI (MCF7 breast): 18.1 µM
TGI (MDA-MB-435): 19.8 µM
TGI (MOLT-4 leukemia): 10.2 µM
TGI (NCI-H23 lung): 15.8 µM
TGI (NCI-H460 lung): 36.5 µM
TGI (NCI-H522 lung): 21.6 µM
TGI (NCI/ADR-RES ovarian): 15.9 µM
TGI (OVCAR-3 ovarian): 21.2 µM
TGI (OVCAR-4 ovarian): 31.7 µM
TGI (OVCAR-5 ovarian): 16.1 µM
TGI (OVCAR-8 ovarian): 20.1 µM
TGI (PC-3 prostate): > 100 µM
TGI (RXF 393 renal): 7.48 µM
TGI (SF-268 CNS): 25.6 µM
TGI (SF-295 CNS): 34.6 µM
TGI (SF-539 CNS): 39.7 µM
TGI (SK-MEL-2 melanoma): 25.9 µM
TGI (SK-MEL-28 melanoma): > 100 µM
TGI (SK-MEL-5 melanoma): 27.4 µM
TGI (SK-OV-3 ovarian): 15.3 µM
TGI (SN12C renal): 20.5 µM
TGI (SNB-19 CNS): 16.3 µM
TGI (SNB-75 CNS): 40.2 µM
TGI (SW-620 colon): 37.7 µM
TGI (T-47D breast): 16.6 µM
TGI (TK-10 renal): 34.7 µM
TGI (U251 CNS): 35.2 µM
TGI (UACC-257 melanoma): 16.8 µM
TGI (UO-31 renal): 18.5 µM

Cc1[nH]c2ncn3[nH]c(=S)nc3c2c1Cc1ccccc1
TGI (786-0 renal): > 100 µM
TGI (A498 renal): > 100 µM
TGI (A549 NSCLC): > 100 µM
TGI (ACHN renal): > 100 µM
TGI (BT-549 breast): > 100 µM
TGI (CAKI-1 renal): > 100 µM
TGI (CCRF-CEM leukemia): > 100 µM
TGI (COLO 205 colon): > 100 µM
TGI (DU-145 prostate): > 100 µM
TGI (EKVX NSCLC): > 100 µM
TGI (HCC-2998 colon): > 100 µM
TGI (HCT-116 colon): > 100 µM
TGI (HCT-15 colon): > 100 µM
TGI (HL-60(TB) leukemia): > 100 µM
TGI (HOP-62 NSCLC): > 100 µM
TGI (HOP-92 NSCLC): > 100 µM
TGI (HS 578T breast): > 100 µM
TGI (HT29 colon): > 100 µM
TGI (IGROV1 ovarian): > 100 µM
TGI (KM12 colon): > 100 µM
TGI (M14 melanoma): > 100 µM
TGI (MALME-3M melanoma): > 100 µM
TGI (MCF7 breast): > 100 µM
TGI (MDA-MB-231 breast): > 100 µM
TGI (MDA-MB-435): > 100 µM
TGI (MOLT-4 leukemia): > 100 µM
TGI (NCI-H226 lung): > 100 µM
TGI (NCI-H23 lung): > 100 µM
TGI (NCI-H460 lung): > 100 µM
TGI (NCI-H522 lung): > 100 µM
TGI (NCI/ADR-RES ovarian): > 100 µM
TGI (OVCAR-3 ovarian): > 100 µM
TGI (OVCAR-4 ovarian): > 100 µM
TGI (OVCAR-5 ovarian): > 100 µM
TGI (OVCAR-8 ovarian): > 100 µM
TGI (PC-3 prostate): > 100 µM
TGI (RXF 393 renal): > 100 µM
TGI (SF-268 CNS): > 100 µM
TGI (SF-295 CNS): > 100 µM
TGI (SF-539 CNS): > 100 µM
TGI (SK-MEL-2 melanoma): > 100 µM
TGI (SK-MEL-28 melanoma): > 100 µM
TGI (SK-MEL-5 melanoma): > 100 µM
TGI (SK-OV-3 ovarian): > 100 µM
TGI (SN12C renal): > 100 µM
TGI (SNB-19 CNS): > 100 µM
TGI (SNB-75 CNS): > 100 µM
TGI (SW-620 colon): > 100 µM
TGI (T-47D breast): > 100 µM
TGI (TK-10 renal): > 100 µM
TGI (U251 CNS): > 100 µM
TGI (UACC-257 melanoma): > 100 µM
TGI (UACC-62 melanoma): > 100 µM
TGI (UO-31 renal): > 100 µM

Cc1cccc2c(=O)c3c(sc12)c(NCCCNCCO)nc1ccccc13
GI50 (786-0 renal): 1.75 µM
TGI (786-0 renal): 3.4 µM
GI50 (A498 renal): 1.3 µM
TGI (A498 renal): 2.83 µM
GI50 (A549 NSCLC): 1.06 µM
TGI (A549 NSCLC): 2.64 µM
GI50 (ACHN renal): 1.49 µM
TGI (ACHN renal): 2.81 µM
GI50 (BT-549 breast): 1.85 µM
TGI (BT-549 breast): 4.27 µM
GI50 (CAKI-1 renal): 1.31 µM
TGI (CAKI-1 renal): 2.67 µM
GI50 (CCRF-CEM leukemia): 1.57 µM
TGI (CCRF-CEM leukemia): 3.31 µM
GI50 (COLO 205 colon): 1.61 µM
TGI (COLO 205 colon): 3.24 µM
GI50 (DU-145 prostate): 1.57 µM
TGI (DU-145 prostate): 2.96 µM
GI50 (EKVX NSCLC): 1.57 µM
TGI (EKVX NSCLC): 3 µM
GI50 (HCC-2998 colon): 1.58 µM
TGI (HCC-2998 colon): 3.06 µM
GI50 (HCT-116 colon): 1.51 µM
TGI (HCT-116 colon): 3.03 µM
GI50 (HCT-15 colon): 1.51 µM
TGI (HCT-15 colon): 2.96 µM
GI50 (HL-60(TB) leukemia): 1.82 µM
TGI (HL-60(TB) leukemia): 3.49 µM
GI50 (HOP-62 NSCLC): 1.22 µM
TGI (HOP-62 NSCLC): 2.75 µM
GI50 (HOP-92 NSCLC): 1.21 µM
TGI (HOP-92 NSCLC): 3.24 µM
GI50 (HS 578T breast): 1.63 µM
TGI (HS 578T breast): 3.62 µM
GI50 (HT29 colon): 1.57 µM
TGI (HT29 colon): 3.2 µM
GI50 (IGROV1 ovarian): 1.34 µM
TGI (IGROV1 ovarian): 2.96 µM
GI50 (KM12 colon): 1.72 µM
TGI (KM12 colon): 3.25 µM
GI50 (LOX IMVI melanoma): 1.38 µM
TGI (LOX IMVI melanoma): 2.76 µM
GI50 (M14 melanoma): 1.81 µM
TGI (M14 melanoma): 3.56 µM
GI50 (MALME-3M melanoma): 1.81 µM
TGI (MALME-3M melanoma): 3.5 µM
GI50 (MCF7 breast): 1.33 µM
TGI (MCF7 breast): 2.87 µM
GI50 (MDA-MB-231 breast): 1.6 µM
TGI (MDA-MB-231 breast): 3.13 µM
GI50 (MDA-MB-435): 1.74 µM
TGI (MDA-MB-435): 3.18 µM
GI50 (MOLT-4 leukemia): 1.13 µM
TGI (MOLT-4 leukemia): 2.62 µM
GI50 (NCI-H226 lung): 1.6 µM
TGI (NCI-H226 lung): 3.33 µM
GI50 (NCI-H23 lung): 1.66 µM
TGI (NCI-H23 lung): 3.13 µM
GI50 (NCI-H460 lung): 1.15 µM
TGI (NCI-H460 lung): 2.55 µM
GI50 (NCI-H522 lung): 1.65 µM
TGI (NCI-H522 lung): 3.54 µM
GI50 (NCI/ADR-RES ovarian): 1.73 µM
TGI (NCI/ADR-RES ovarian): 3.26 µM
GI50 (OVCAR-3 ovarian): 1.74 µM
TGI (OVCAR-3 ovarian): 3.26 µM
GI50 (OVCAR-4 ovarian): 1.8 µM
TGI (OVCAR-4 ovarian): 3.44 µM
GI50 (OVCAR-5 ovarian): 1.6 µM
TGI (OVCAR-5 ovarian): 3.02 µM
GI50 (OVCAR-8 ovarian): 1.71 µM
TGI (OVCAR-8 ovarian): 3.37 µM
GI50 (PC-3 prostate): 1.29 µM
TGI (PC-3 prostate): 2.75 µM
GI50 (RPMI-8226 leukemia): 1.81 µM
TGI (RPMI-8226 leukemia): 3.81 µM
GI50 (RXF 393 renal): 1.51 µM
TGI (RXF 393 renal): 2.89 µM
GI50 (SF-268 CNS): 1.4 µM
TGI (SF-268 CNS): 2.97 µM
GI50 (SF-295 CNS): 1.72 µM
TGI (SF-295 CNS): 3.18 µM
GI50 (SF-539 CNS): 1.71 µM
TGI (SF-539 CNS): 3.09 µM
GI50 (SK-MEL-2 melanoma): 1.75 µM
TGI (SK-MEL-2 melanoma): 3.34 µM
GI50 (SK-MEL-28 melanoma): 1.73 µM
TGI (SK-MEL-28 melanoma): 3.18 µM
GI50 (SK-MEL-5 melanoma): 1.78 µM
TGI (SK-MEL-5 melanoma): 3.29 µM
GI50 (SN12C renal): 1.56 µM
TGI (SN12C renal): 3.12 µM
GI50 (SNB-75 CNS): 1.13 µM
TGI (SNB-75 CNS): 2.35 µM
GI50 (SW-620 colon): 1.43 µM
TGI (SW-620 colon): 2.99 µM
GI50 (T-47D breast): 1.57 µM
TGI (T-47D breast): 3.5 µM
GI50 (U251 CNS): 1.5 µM
TGI (U251 CNS): 2.96 µM
GI50 (UACC-257 melanoma): 1.86 µM
TGI (UACC-257 melanoma): 3.54 µM
GI50 (UACC-62 melanoma): 1.67 µM
TGI (UACC-62 melanoma): 3.17 µM
GI50 (UO-31 renal): 1.19 µM
TGI (UO-31 renal): 2.55 µM
